Test results: US4399125A, “Novel antagonists of the antidiuretic action of arginine vasopressin” (priority 1981, dated 1983)
*1 amine or outer side, *2 acyl side, *3 side chain or, on linkers, in order; H or OH if unused. Where a SMILES comes first, the peptide text is derived from it. Bridges are numbered along the chain shown (N, C = ends). [ ]: non-standard residue; d: D form. X1 = O=C(CC1(S[*:2])CCCCC1)[*:1]

Key:
[1] = tested on: antidiuretic activity (urine flow); settings: prior art statement; cited from earlier work
[2] = tested on: vasopressor response to AVP; settings: prior art statement; cited from earlier work
[3] = tested on: oxytocic response to oxytocin; settings: literature; cited from earlier work
vasoconstrictive action = settings: compared with natural vasopressins; cited from earlier work
[4] = tested on: antidiuretic response to ADH (arginine vasopressin); settings: earlier work of Manning et al. (in press); cited from earlier work
[5] = tested on: antidiuretic response to ADH (arginine vasopressin); test: Antagonism of the antidiuretic response to ADH (anti-antidiuretic potency) in ethanol-anesthetized water-loaded rats; settings: estimated in vivo pA2 = negative logarithm of effective dose divided by estimated volume of distribution (67 mL/kg); (n) in parentheses
Experimental: Activity as antidiuretic agonists was determined by intravenous injection of compounds being evaluated into ethanol-anesthesized water-loaded rats in accordance with Sawyer et al., Endocrinology, vol. 63 (1958) at 694.
(§1) Antagonistic potencies were determined and expressed as "effective doses" and as pA2 values. The "effective dose" is defined as the dose (in nanomoles per kilogram) that reduces the response seen from 2x units of agonist injected 20 min after the dose of antagonist to the response with 1x units of agonist.

[6] = tested on: vasopressor response to AVP; test: Antagonism to the vasopressor response (Dyckes et al.); settings: estimated in vivo pA2 (Schild); effective dose / 67 mL/kg; (n) in parentheses
Experimental: Antagonism to the vasopressor response was estimated in accordance with Dyckes et al., J. Med. Chem., vol. 17 (1974) at 969. The values are expressed as pA2 values, defined by Schild et al., Br. J. Pharmacol., vol. 2 (1947) at 189.
as §1

In the case of “[1-deaminopenicillamine, 4-valine, 8-D-arginine]vasopressin”, the “antidiuretic potency / activity (in words)” value [1] is given as “weak antidiuretic activity” and the “vasopressor antagonism (in words)” value [2] is given as “potent antagonists of the vasopressor response to AVP”.

In the case of “[1-(β-Mercapto-β,β-cyclopentamethylenepropionic acid] arginine vasopressin”, the “antidiuretic potency / activity (in words)” value [1] is given as “very low antidiuretic potency” and the “vasopressor antagonism (in words)” value [2] is given as “potent vasopressor antagonists”.

For “[1-(β-mercapto-β,β-cyclopentamethylenepropionic acid)] oxytocin [d(CH2)5 OT]”, the “oxytocic activity (agonist / antagonist, in words)” value [3] is listed as “potent antagonists of the oxytocic response to oxytocin”.

In the case of 2-phenylalanine-8-ornithine vasopressin, the vasoconstrictive action (vasoconstrictive action) is given as “equal to that of natural vasopressins” and the “antidiuretic potency / activity (in words)” value [1] is given as “low antidiuretic activity”.

In the case of 1-deamino-oxytocin [dOT], the “oxytocic activity (agonist / antagonist, in words)” value [3] is listed as “highly potent oxytocic agonist”.

In the case of “[1-(β-mercapto-β,β-cyclopentamethylenepropionic acid), 2-D-tyrosine, 4-valine, 8-D-arginine] vasopressin [d(CH2)5 D-Tyr-VDAVP]”, the “anti-antidiuretic activity (in words)” value [4] is listed as “anti-antidiuretics”.

In the case of “[1-(β-mercapto-β,β-cyclopentamethylenepropionic acid), 4-valine, 8-D-arginine] vasopressin”, the “antidiuretic potency / activity (in words)” value [1] is given as “weak antidiuretic activity” and the “vasopressor antagonism (in words)” value [2] is given as “potent antagonists of the vasopressor response to AVP”.

In the case of “[1-(β-Mercapto-β,β-cyclopentamethylenepropionic acid), 2-(O-methyl)tyrosine]-arginine vasopressin”, the “antidiuretic potency / activity (in words)” value [1] is listed as “very low antidiuretic potency” and the “vasopressor antagonism (in words)” value [2] is listed as “potent vasopressor antagonists”.

In the case of “1-deamino[4-valine, 8-D-arginine] vasopressin [dVDAVP]”, the “antidiuretic potency / activity (in words)” value [1] is listed as “highly active and selective antidiuretic peptide”.

For “[1-deaminopenicillamine] oxytocin [dPOT]”, the “oxytocic activity (agonist / antagonist, in words)” value [3] is listed as “potent antagonists of the oxytocic response to oxytocin”.

For `CC(C)[C@@H]1NC(=O)[C@H](Cc2ccccc2)NC(=O)[C@@H](C(C)C)NC(=O)CC2(CCCCC2)SSC[C@@H](C(=O)N2CCC[C@H]2C(=O)N[C@@H](CCCNC(=N)N)C(=O)NCC(N)=O)NC(=O)[C@H](CC(N)=O)NC1=O` [d(CH2)5 [D-Val^2] VAVP, [1-(β-mercapto-β,β-cyclopentamethylenepropionic acid), 2-D-valine, 4-valine]-arginine vasopressin] ([dV]FVNCPRG-NH2; linker N-5 via X1), the “Anti-Antidiuretic pA2” value [5] was 7.48 ± 0.06 and the “Antivasopressor pA2” value [6] was 6.41 ± 0.05.

For `CC(C)C[C@H]1NC(=O)CC2(CCCCC2)SSC[C@@H](C(=O)N2CCC[C@H]2C(=O)N[C@@H](CCCNC(=N)N)C(=O)NCC(N)=O)NC(=O)[C@H](CC(N)=O)NC(=O)[C@H](C(C)C)NC(=O)[C@H](Cc2ccccc2)NC1=O` [d(CH2)5 [D-Leu^2] VAVP, [1-(β-mercapto-β,β-cyclopentamethylenepropionic acid), 2-D-leucine, 4-valine]-arginine vasopressin] ([dL]FVNCPRG-NH2; linker N-5 via X1), the “Anti-Antidiuretic pA2” value [5] was 7.79 ± 0.12 and the “Antivasopressor pA2” value [6] was 6.45 ± 0.09.

With `COc1ccc(C[C@@H]2NC(=O)CC3(CCCCC3)SSC[C@@H](C(=O)N3CCC[C@H]3C(=O)N[C@H](CCCNC(=N)N)C(=O)NCC(N)=O)NC(=O)[C@H](CC(N)=O)NC(=O)[C@H](C(C)C)NC(=O)[C@H](Cc3ccccc3)NC2=O)cc1` [d(CH2)5 Tyr(Me) VDAVP, [1-(β-mercapto-β,β-cyclopentamethylenepropionic acid), 2-O-methyltyrosine, 4-valine, 8-D-arginine] vasopressin] (Y(Me)FVNCP[dR]G-NH2; linker N-5 via X1) the “Anti-Antidiuretic pA2” value [5] was 6.68 ± 0.11 and the “Antivasopressor pA2” value [6] was 8.44 ± 0.07.
